For series [1], the target named is T1, PLK1 (Homo sapiens, UniProt P53350).
T1 construct: cells were lysed and total proteins were extracted for immunoblot analysis of PLK1 expression; endogenous in cells; host or cells: HeLa
Nature of the series: PLK1 protein degradation in HeLa cells by immunoblotting. Format: cell-based. The note with it: NC1 24 h, 5 µM MG132 for 8 h. The protocol:
HeLa cells were seeded in 12-well plates with 1 × 10^5 cells per well and allowed to stay for overnight. Various concentrations (0, 1, 2, 3, 4, and 5 µM) of NC1 were added to HeLa cells in 12-well plates and incubated for 24 h. An amount of 5 µM of MG132 was added to the cells and incubated for 8 h to evaluate the proteasome inhibition. before harvesting. Following treatment, cells were lysed and total proteins were extracted for immunoblot analysis of PLK1 expression. Protein samples were separated by SDS-PAGE and transferred onto PVDF membranes. PLK1 was detected using a mouse-derived monoclonal antibody, with β-actin used as an internal control to ensure equal loading.
On the technique in general: Immunoblotting shows a protein as a band on a membrane.

In series [2] the test system is HeLa cells.
For series [3], the target named is T2, PLK1 PBD (Mus musculus, UniProt Q07832).
T2 construct: (Swiss Prot entry Q07832, residues 367–603); 6XHis (N); TEV protease cleavage site (N); made in house; pET28a vector and IPTG induction point to E. coli (inferred)
The series is described as follows: Isothermal titration calorimetry (ITC) of PLK1 PBD with NC1. The conditions noted are these: 25 °C, PLK1 PBD 20 µM in cell, NC1 200 µM in syringe, 20 mM HEPES pH 7.5, 200 mM NaCl, 5% DMSO, one-site model, read-out: Kd, binding affinity between NC1 and PLK1 PBD. The protocol:
The mouse PLK1 in Polo box domain (PBD) (Swiss Prot entry Q07832, residues 367–603) was expressed as a recombinant protein containing an N-terminal 6XHis tag in the pET28a vector and a tobacco etch virus (TEV) protease cleavage was engineered between the affinity tag and PLK1 PBD. PLK1 PBD protein expression was induced by adding 0.1 mM IPTG and incubating the cells overnight at 18 °C. Following induction, the cells were collected by centrifugation and lysed via sonication after being resuspended in buffer composed of 20 mM HEPES (pH 7.5), 200 mM NaCl, 2 mM β-mercaptoethanol, and 1 mM PMSF. The lysate was clarified by centrifugation at 18,000 rpm for 40 min at 4 °C. The resulting supernatant was subjected to immobilized metal affinity chromatography (IMAC) using a Ni^2+-NTA HiTrap column (GE Healthcare), and the protein was eluted using an imidazole gradient ranging from 25 to 500 mM. For further purification, size-exclusion chromatography was conducted on a HiLoad 26/60 Superdex-75 column equilibrated with 20 mM HEPES (pH 7.2), 150 mM NaCl, and 2 mM DTT. PLK1 PBD protein was purified the purity of the proteins at each stage was checked on 15% SDS-PAGE. The purified PLK1 PBD protein was concentrated to 10 mg/mL using a VIVASPIN20 (Sartorius, Göttingen, Germany) concentrator and stored at −80 °C until use. […]
In general terms: ITC needs no label: the signal is the heat of the interaction.

Series [4] has as its system HeLa xenograft cervical cancer. Nature of the series: In vivo antitumor activity, HeLa xenograft mouse model. The conditions noted are these: nude mice, 4 mg/kg tail vein every 3-4 d for 29 d, n = 4. The protocol:
The antitumor efficacy of NC1 was assessed in a HeLa xenograft mouse model, as reported. Briefly, 5 × 10^6 HeLa cells were subcutaneously injected into the right thigh region of immunodeficient nude mice. When tumors reached an approximate volume of 100 mm^3 (calculated using the formula: volume = 0.52 × length × width^2), mice were randomly assigned to treatment groups. NC1 (4 mg/kg) or PBS (vehicle control) was administered via tail vein injection at intervals of 3–4 days over a period of 29 days. Tumor volumes were measured regularly using calipers. All animal procedures were approved by the KBSI Institutional Animal Care and Use Committee (Protocol No. KBSI-IACUC-24-15) and were conducted in accordance with institutional and governmental regulations.

Series [5] concerns cervical carcinoma. The conditions noted are these: advanced or recurrent cervical carcinoma, limited owing to chemoresistance; cited from earlier work. The source says:
According to the WHO, cervical cancer was the fourth most common cancer among women globally in 2022, with an estimated 660,000 new cases. Cervical cancer remains a considerable health threat, with 94% of the 350,000 deaths occurring in low- and middle-income countries. Chemotherapy, particularly cisplatin, is the primary treatment for advanced or recurrent cervical carcinoma. However, the response rate is limited to approximately 23% owing to chemoresistance. In addition, carboplatin, another platinum-based chemotherapy, is often used as an alternative for patients intolerant to c ...

The test system of series [6] is HeLa cells. The series is described as follows: Morphological assessment by phase contrast microscopy. Format: cell-based. The conditions noted are these: 6 µM, 30 h.
Series [7] deals with HeLa cells. Nature of the series: G2/M phase cell cycle arrest by flow cytometry (PI). Format: cell-based. The conditions noted are these: 6 µM, 24 h. The protocol:
HeLa cells (3.5 × 10^5 cells/well) were seeded into 6-well plates and grown to 80–90% confluence. […] Both medium and floating cells were collected, washed with PBS three times, and fixed in 70% cold ethanol. Further, cells were washed again with PBS and stained with a solution containing PI (1 µg/mL) and RNase A (1 µg/mL) at 37 °C for 30 min. The stained cells were analyzed using a CytoFLEX flow cytometer (Beckman Coulter, Brea, CA, USA), and data were processed with FlowJo v10.10 [10].
On the technique in general: In flow cytometry, cells or beads pass a laser one at a time.

The test system of series [8] is HeLa cells. Nature of the series: Fluorescence apoptosis assay (LIVE/DEAD kit). The conditions noted are these: 6 µM, 24 h, LIVE/DEAD staining. Format: cell-based.
In series [9] the target is T3, NC1 (Arg12-Ahx-PLH(n-octylphenyl)SpT PROTAC peptide) (synthetic construct).
T3 chain: RRRRRRRRRRRR[Ahx]PLH(n‑octylphenyl)S[pT]-NH2
Nature of the series: ITC.

Non-standard residues stand in square brackets, D forms with d. Residues, ends and D or L forms follow the SMILES beside them. No end group written: not given here. *: point of attachment. n‑octylphenyl = n-octylphenyl group on the histidine (alkylphenyl side chain at His); His(π-(CH2)8Ph) = N[C@@H](Cc1cncn1CCCCCCCCc1ccccc1)C(=O)O; pT = C[C@@H](OP(=O)(O)O)[C@H](N)C(=O)O; Cbz = O=C(OCc1ccccc1)*; Ahx = NCCCCCC(=O)O

T1 sequence (P53350 whole entry): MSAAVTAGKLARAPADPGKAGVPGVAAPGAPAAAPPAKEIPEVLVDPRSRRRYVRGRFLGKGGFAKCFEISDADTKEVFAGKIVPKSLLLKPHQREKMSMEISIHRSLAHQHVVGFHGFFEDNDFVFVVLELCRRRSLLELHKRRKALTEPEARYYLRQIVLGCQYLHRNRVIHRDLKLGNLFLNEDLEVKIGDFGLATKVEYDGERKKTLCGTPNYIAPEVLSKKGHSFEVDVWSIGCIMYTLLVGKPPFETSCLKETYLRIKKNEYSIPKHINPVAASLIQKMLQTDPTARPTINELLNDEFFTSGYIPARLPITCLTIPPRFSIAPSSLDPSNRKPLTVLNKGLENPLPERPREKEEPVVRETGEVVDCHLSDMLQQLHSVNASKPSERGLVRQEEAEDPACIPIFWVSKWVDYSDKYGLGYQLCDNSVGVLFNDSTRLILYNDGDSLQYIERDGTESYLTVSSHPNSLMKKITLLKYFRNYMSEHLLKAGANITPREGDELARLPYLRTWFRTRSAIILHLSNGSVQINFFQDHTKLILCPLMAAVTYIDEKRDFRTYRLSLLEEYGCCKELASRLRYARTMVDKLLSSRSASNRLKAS

On to `CC(C)C[C@@H](C=O)NC(=O)[C@H](CC(C)C)NC(=O)[C@H](CC(C)C)NC(=O)OCc1ccccc1` [MG132] (Cbz-Leu-Leu-Leu-aldehyde), for which, in [1], the “Effect of proteasome inhibitor co-treatment on NC1-induced PLK1 degradation” value is “significantly reduced degradation”.
As usually defined, the IC50 is the concentration that inhibits the measured activity by half. By Kd is commonly meant the concentration at which binding is half-saturated. On to `CC(C)C[C@H](NC(=O)[C@@H]1CCCN1C(=O)CCCCCNC(=O)[C@H](CCCNC(=N)N)NC(=O)[C@H](CCCNC(=N)N)NC(=O)[C@H](CCCNC(=N)N)NC(=O)[C@H](CCCNC(=N)N)NC(=O)[C@H](CCCNC(=N)N)NC(=O)[C@H](CCCNC(=N)N)NC(=O)[C@H](CCCNC(=N)N)NC(=O)[C@H](CCCNC(=N)N)NC(=O)[C@H](CCCNC(=N)N)NC(=O)[C@H](CCCNC(=N)N)NC(=O)[C@H](CCCNC(=N)N)NC(=O)[C@@H](N)CCCNC(=N)N)C(=O)N[C@@H](Cc1cncn1CCCCCCCCc1ccccc1)C(=O)N[C@@H](CO)C(=O)N[C@H](C(N)=O)[C@@H](C)OP(=O)(O)O` [NC1] (H-RRRRRRRRRRRR[Ahx]PL[His(π-(CH2)8Ph)]S[pT]-NH2), for which, in series [2] (read-out: IC50 for cancer cell viability, MTT, 24 h), the IC50 stood at 5.23 µM. The Kd in series [3] is 6.06 µM. Besides, the “Body weight of tumor-bearing mice” value in series [4] is reported as “remained constant”.
As for `N.N.[Cl][Pt][Cl]` [cisplatin], the Response rate entry in series [5] is “approximately 23%”.
Turning to PLH(n-octylphenyl)SpT [4j], the “Morphological changes of HeLa cells” value in series [6] was “did not induce notable morphological changes”. In addition, in series [7], the G1 cell population was found to be 75.88, the G2/M cell population was found to be 14.68, the “Increase in G2/M cell population compared with the control” value was 2.38% and the S cell population was found to be 5.47. Further, in series [7], the SubG1 cell population came out at 3.97. The “Effect on cell viability” value in series [2] (MTT, 24 h, up to 12 µM) is recorded as “did not significantly affect cell viability”. In series [8], the “Apoptotic (dead, red) cells in fluorescence images” value is reported as “few apoptotic red cells”.

B1: PLK1 367-603 (protein)
chain: NEAIECHLSDLLQQLTSVNASKPSERGLVRQEEAEDPACIPIFWVSKWVDYSDKYGLGYQLCDNSVGVLFNDSTRLILYNDGDSLQYIERDGTESYLTVSSHPNSLMKKITLLNYFRNYMSEHLLKAGANITPREGDELARLPYLRTWFRTRSAIILHLSNGTVQINFFQDHTKLILCPLMAAVTYINEKRDFQTYRLSLLEEYGCCKELASRLRYARTMVDKLLSSRSASNRLKAS
In turn, B1 gave a Kd in [9] of 6.06 µM.

(Values after paper PMC12389170, “N-Degron-Based PROTAC Targeting PLK1: A Potential Therapeutic Strategy for Cervical Cancer” (Pharmaceutics, 2025).)
